Reference: US20050245399A1, “Pyrazole derivatives as herbicidal compositions containing them” (ISHIHARA SANGYO KAISHA, LTD., priority 2004, published 2005)

Experiments:
Format in all cases: in vivo
[1] = tested on: barnyardgrass (Echinochloa crus-galli L.), ECHCG; assay: Test Example 2 post-emergence (foliage treatment) herbicidal activity, ECHCG; details: 63 g a.i./ha
Source text: (§1) Upland field soil was put into a 1/170,000 ha pot, and seeds of various plants were sown. Then, when the plants reached predetermined leaf stages {1. barnyardgrass (Echinochloa crus-galli L.), ECHCG: 1.1-2.1 leaf stage, 2. crabgrass (Digitaria sanguinalis L.), DIGSA: 1.0-2.0 leaf stage, 3. green foxtail (Setaria viridis L.), SETVI: 1.0-2.2 leaf stage, 4. redroot pigweed (Amaranthus retroflexus L.), AMARE: 0.1-1.5 leaf stage, 5. prickly sida (Sida spinosa L.), SIDSP: 0.1-0.6 leaf stage, 6. velvetleaf (Abutilon theophrasti), ABUTH: 0.1-0.6 leaf stage, 7. common cocklebur (Xanthium strumarium L.), XANST: 0.1 leaf stage, 8. rice (Oryza sativa L.), ORYSA; 1.0-2 leaf stage, 9. wheat (Triticum aestivum L.), TRZAX: 2.3-3.5 leaf stage, 10. corn (Zea mays L.), ZEAMXN 2.1-2.6 leaf stage, 11. soybean (Glycine max Merr.), GLXMA: primary leaf stage}, a wettable powder or emulsifiable concentrate having the compound of the present invention formulated in accordance with a usual formulation method, was weighed so that the active ingredient would be a predetermined amount, and diluted with water in an amount of 500 L/ha. To the diluted solution, 0.1% (v/v) of an agricultural spreader was added. The herbicide adjusted was applied by a small size sprayer for foliage treatment. On the 20th to 23rd day after the application of the herbicide, the growth of the respective plants was visually observed, and the herbicidal effects were evaluated by growth controlling degrees (%) ranging from 0 (equivalent to the untreated control) to 100 (complete kill), whereby the results shown in Table 5, were obtained. Compound Nos. in Table 5 correspond to Compound Nos. in Table 1 and 2 given hereinbefore.

[2] = tested on: prickly sida (Sida spinosa L.): SEDSP; assay: Test Example 1 pre-emergence herbicidal activity, SIDSP; details: Rate 63 g a.i./ha, visually observed 20th to 23rd day after application
Source text: (§2) Upland field soil was put into a 1/170,000 ha pot, and seeds of various plants {1. barnyardgrass (Echinochloa crus-galli L.): ECHCG, 2. crabgrass (Digitaria sanguinalis L.): DIGSA, 3. green foxtail (Setaria viridis L.): SETVI, 4. redroot pigweed (Amaranthus retroflexus L.): AMARE, 5. prickly sida (Sida spinosa L.): SEDSP, 6. velvetleaf (Abutilon theophrasti): ABUTH, 7. common cocklebur (Xanthium strumarium L.): XANST, 8. rice (Oryza sativa L.): ORYSA, 9. wheat (Triticum aestivum L.): TRZAX, 10. corn (Zea mays L.): ZEAMX, 11. soybean (Glycine max Merr.): GLXMA} were sown. Then, one day after the sowing, a wettable powder or emulsifiable concentrate having the compound of the present invention formulated in accordance with a usual formulation method, was weighed so that the active ingredient would be a predetermined amount and diluted with water in an amount of 500 L/ha. The herbicide adjusted was applied by a small size sprayer for preemergence treatment. On the 20th to 23rd day after the application of the herbicide, the growth of the respective plants was visually observed, and the herbicidal effects were evaluated by growth controlling degrees (%) ranging from 0 (equivalent to the untreated control) to 100 (complete kill), whereby the results shown in Table 4, were obtained. Compound Nos. in Table 4 correspond to Compound Nos. in Table 1 and 2 given hereinbefore.

[3] = tested on: redroot pigweed (Amaranthus retroflexus L.), AMARE; assay: Test Example 2 post-emergence (foliage treatment) herbicidal activity, AMARE; details: 63 g a.i./ha
Source text: as §1

[4] = tested on: soybean (Glycine max Merr.): GLXMA; assay: Test Example 1 pre-emergence herbicidal activity, GLXMA; details: Rate 63 g a.i./ha, visually observed 20th to 23rd day after application
Source text: as §2

[5] = tested on: wheat (Triticum aestivum L.): TRZAX; assay: Test Example 1 pre-emergence herbicidal activity, TRZAX; details: Rate 63 g a.i./ha, visually observed 20th to 23rd day after application
Source text: as §2

[6] = tested on: rice (Oryza sativa L.): ORYSA; assay: Test Example 1 pre-emergence herbicidal activity, ORYSA; details: Rate 63 g a.i./ha, visually observed 20th to 23rd day after application
Source text: as §2

[7] = tested on: corn (Zea mays L.): ZEAMX; assay: Test Example 1 pre-emergence herbicidal activity, ZEAMX; details: Rate 63 g a.i./ha, visually observed 20th to 23rd day after application
Source text: as §2

[8] = tested on: crabgrass (Digitaria sanguinalis L.), DIGSA; assay: Test Example 2 post-emergence (foliage treatment) herbicidal activity, DIGSA; details: 63 g a.i./ha
Source text: as §1

[9] = tested on: crabgrass (Digitaria sanguinalis L.): DIGSA; assay: Test Example 1 pre-emergence herbicidal activity, DIGSA; details: Rate 63 g a.i./ha, visually observed 20th to 23rd day after application
Source text: as §2

[10] = tested on: redroot pigweed (Amaranthus retroflexus L.): AMARE; assay: Test Example 1 pre-emergence herbicidal activity, AMARE; details: Rate 63 g a.i./ha, visually observed 20th to 23rd day after application
Source text: as §2

[11] = tested on: wheat (Triticum aestivum L.), TRZAX; assay: Test Example 2 post-emergence (foliage treatment) herbicidal activity, TRZAX; details: 63 g a.i./ha
Source text: as §1

[12] = tested on: green foxtail (Setaria viridis L.): SETVI; assay: Test Example 1 pre-emergence herbicidal activity, SETVI; details: Rate 63 g a.i./ha, visually observed 20th to 23rd day after application
Source text: as §2

[13] = tested on: velvetleaf (Abutilon theophrasti), ABUTH; assay: Test Example 2 post-emergence (foliage treatment) herbicidal activity, ABUTH; details: 63 g a.i./ha
Source text: as §1

[14] = tested on: velvetleaf (Abutilon theophrasti): ABUTH; assay: Test Example 1 pre-emergence herbicidal activity, ABUTH; details: Rate 63 g a.i./ha, visually observed 20th to 23rd day after application
Source text: as §2

[15] = tested on: green foxtail (Setaria viridis L.), SETVI; assay: Test Example 2 post-emergence (foliage treatment) herbicidal activity, SETVI; details: 63 g a.i./ha
Source text: as §1

[16] = tested on: rice (Oryza sativa L.), ORYSA; assay: Test Example 2 post-emergence (foliage treatment) herbicidal activity, ORYSA; details: 63 g a.i./ha
Source text: as §1

[17] = tested on: barnyardgrass (Echinochloa crus-galli L.): ECHCG; assay: Test Example 1 pre-emergence herbicidal activity, ECHCG; details: Rate 63 g a.i./ha, visually observed 20th to 23rd day after application
Source text: as §2

[18] = tested on: soybean (Glycine max Merr.), GLXMA; assay: Test Example 2 post-emergence (foliage treatment) herbicidal activity, GLXMA; details: 63 g a.i./ha
Source text: as §1

[19] = tested on: corn (Zea mays L.), ZEAMX; assay: Test Example 2 post-emergence (foliage treatment) herbicidal activity, ZEAMX; details: 63 g a.i./ha
Source text: as §1

SMILES	growth controlling degree, ECHCO [1]	Pre-emergence Herbicidal Activity SIDSP (growth controlling degree) [2]	growth controlling degree, AMARE [3]	Pre-emergence Herbicidal Activity GLXMA (growth controlling degree) [4]	Pre-emergence Herbicidal Activity TRZAX (growth controlling degree) [5]	Pre-emergence Herbicidal Activity ORYSA (growth controlling degree) [6]	Pre-emergence Herbicidal Activity ZEAMX (growth controlling degree) [7]	growth controlling degree, DIGSP [8]	Pre-emergence Herbicidal Activity DIGSP (growth controlling degree) [9]	Pre-emergence Herbicidal Activity AMARE (growth controlling degree) [10]	growth controlling degree, TRZAX [11]	Pre-emergence Herbicidal Activity SETVI (growth controlling degree) [12]	growth controlling degree, ABUTH [13]	Pre-emergence Herbicidal Activity ABUTH (growth controlling degree) [14]	growth controlling degree, SETVI [15]	growth controlling degree, ORYSA [16]	Pre-emergence Herbicidal Activity ECHCG (growth controlling degree) [17]	growth controlling degree, GLXMA [18]	growth controlling degree, ZEAMX [19]
COc1c(Cl)cc(F)c(-c2nn(C)c(OC(F)F)c2Cl)c1NC(=O)c1cccc(C(F)(F)F)c1 [Compound 1-262]	60%	30%	100%	0%	0%	10%	0%	40%	30%	100%	30%	30%	100%	20%	80%	30%	0%	50%	40%
CCOC(=O)C(C)Nc1c(OC)c(Cl)cc(F)c1-c1nn(C)c(OC(F)F)c1Cl (stereo not drawn) [Compound 1-76]	100%	60%	100%	0%	0%	10%	0%	70%	100%	100%	40%	60%	100%	40%	80%	80%	60%	70%	90%
COc1c(Cl)cc(F)c(-c2nn(C)c(OC(F)F)c2Cl)c1NC(=O)CCC1CCCCC1 [Compound 1-259]	50%	30%	100%	0%	10%	0%	0%	30%	20%	100%	0%	30%	100%	0%	50%	10%	10%	10%	0%
